Values joined by “and” are separate entries in the source; they are usually repeats but may differ in a detail not shown here. Equal entries are not always repeated.
Settings: 323.15 K, Liquid, Vibrating tube method

CCCCCCCCCC [decane]
Settings	mass density
979 kPa	707.8 kg/m3
1136 kPa	707.9 kg/m3
1175 kPa	707.9 kg/m3
2516 kPa	709.2 kg/m3
2603 kPa	709.2 kg/m3
2658 kPa	709.3 kg/m3
2678 kPa	709.4 kg/m3
2691 kPa	709.3 kg/m3
2692 kPa	709.2 kg/m3 and 709.4 kg/m3
2703 kPa	709.4 kg/m3
2822 kPa	709.4 kg/m3
2861 kPa	709.4 kg/m3
2878 kPa	709.5 kg/m3
2894 kPa	709.6 kg/m3
2913 kPa	709.5 kg/m3
2936 kPa	709.5 kg/m3
2951 kPa	709.6 kg/m3
2967 kPa	709.5 kg/m3
2987 kPa	709.6 kg/m3
3000 kPa	709.7 kg/m3
3022 kPa	709.6 kg/m3
3044 kPa	709.5 kg/m3
3064 kPa	709.6 kg/m3
3081 kPa	709.7 kg/m3
4273 kPa	710.8 kg/m3
4294 kPa	710.8 kg/m3
4322 kPa	710.8 kg/m3
4342 kPa	710.9 kg/m3
4361 kPa	710.8 kg/m3
4382 kPa	710.8 kg/m3
4423 kPa	710.9 kg/m3
4487 kPa	711 kg/m3
4606 kPa	711 kg/m3
4625 kPa	711.1 kg/m3
4647 kPa	711.1 kg/m3
4668 kPa	711.2 kg/m3
4685 kPa	711.2 kg/m3
4861 kPa	711.3 kg/m3
4889 kPa	711.4 kg/m3
4922 kPa	711.3 kg/m3
5651 kPa	712 kg/m3
5805 kPa	712.2 kg/m3
5822 kPa	712.1 kg/m3
5843 kPa	712.2 kg/m3
5857 kPa	712.3 kg/m3
5874 kPa	712.2 kg/m3
5887 kPa	712.2 kg/m3
6263 kPa	712.6 kg/m3
6285 kPa	712.6 kg/m3
6300 kPa	712.6 kg/m3
6321 kPa	712.5 kg/m3
6341 kPa	712.7 kg/m3
6363 kPa	712.7 kg/m3
6380 kPa	712.6 kg/m3
6398 kPa	712.7 kg/m3
6436 kPa	712.7 kg/m3
6474 kPa	712.7 kg/m3
6492 kPa	712.8 kg/m3
6514 kPa	712.7 kg/m3
6635 kPa	712.8 kg/m3
6654 kPa	712.9 kg/m3
6678 kPa	712.9 kg/m3
6703 kPa	713 kg/m3
6916 kPa	713 kg/m3
6934 kPa	713.1 kg/m3
6961 kPa	713.2 kg/m3
6979 kPa	713.1 kg/m3
7007 kPa	713.1 kg/m3
7029 kPa	713.3 kg/m3
7057 kPa	713.3 kg/m3
7082 kPa	713.3 kg/m3
7102 kPa	713.2 kg/m3
7118 kPa	713.3 kg/m3
7137 kPa	713.4 kg/m3
7158 kPa	713.4 kg/m3
7174 kPa	713.4 kg/m3
7190 kPa	713.4 kg/m3
7203 kPa	713.3 kg/m3
7224 kPa	713.3 kg/m3
7238 kPa	713.4 kg/m3
7254 kPa	713.5 kg/m3
7271 kPa	713.5 kg/m3
7304 kPa	713.4 kg/m3
7318 kPa	713.5 kg/m3
7339 kPa	713.4 kg/m3
7354 kPa	713.4 kg/m3
7368 kPa	713.5 kg/m3
8395 kPa	714.3 kg/m3
8425 kPa	714.4 kg/m3
8563 kPa	714.5 kg/m3
8605 kPa	714.6 kg/m3
9325 kPa	715.2 kg/m3
9451 kPa	715.3 kg/m3
10321 kPa	715.9 kg/m3
10344 kPa	716 kg/m3
10548 kPa	716.3 kg/m3
11286 kPa	716.8 kg/m3
11307 kPa	716.8 kg/m3
11331 kPa	716.8 kg/m3
11359 kPa	716.8 kg/m3
11377 kPa	716.9 kg/m3
11401 kPa	717 kg/m3
11467 kPa	717 kg/m3
12096 kPa	717.5 kg/m3
12122 kPa	717.5 kg/m3
12147 kPa	717.6 kg/m3
12173 kPa	717.6 kg/m3
12190 kPa	717.7 kg/m3
12213 kPa	717.5 kg/m3
12230 kPa	717.6 kg/m3
12257 kPa	717.6 kg/m3
12397 kPa	717.7 kg/m3
12417 kPa	717.7 kg/m3
12435 kPa	717.8 kg/m3
12457 kPa	717.8 kg/m3
12472 kPa	717.8 kg/m3
12495 kPa	717.8 kg/m3
12510 kPa	717.9 kg/m3
12528 kPa	717.8 kg/m3
12854 kPa	718.2 kg/m3
12869 kPa	718.2 kg/m3
12887 kPa	718.1 kg/m3
12906 kPa	718.2 kg/m3
12919 kPa	718.1 kg/m3
12964 kPa	718.2 kg/m3
12977 kPa	718.3 kg/m3
12991 kPa	718.2 kg/m3
13012 kPa	718.2 kg/m3
13060 kPa	718.2 kg/m3
13843 kPa	718.9 kg/m3
13863 kPa	718.9 kg/m3
13877 kPa	718.9 kg/m3
13892 kPa	719 kg/m3
13909 kPa	719 kg/m3
13924 kPa	719 kg/m3
13946 kPa	719 kg/m3

Reference: the NIST ThermoML archive (doi:10.1021/je800110r)
